Reference: patent publication US12365928B2, “Scalable biosynthesis of the seaweed neurochemical kainic acid” (The Regents of the University of California, priority 2018, dated 2025)
“Also recorded” adds a separate entry of the source.

Experiments:
DsKabA = target: T1, DsKabA (Digenea simplex, UniProt A0A4D6IA24); assay: DsKabA activity and substrate specificity assay (LCMS); type: biochemical; details: 23° C., 5 h, LCMS (FIG. 8); for turnover to N-prenylated product when L-glutamate is exchanged for another amino acid: 5 mM amino acid, 1 mM DMAPP, 5 mM MgCl2, 20 μM DsKabA
T1 construct: DsKabA p28 For; His6 (N); made in house; host or cells: E. coli BL-21
T1 sequence (A0A4D6IA24 1-439): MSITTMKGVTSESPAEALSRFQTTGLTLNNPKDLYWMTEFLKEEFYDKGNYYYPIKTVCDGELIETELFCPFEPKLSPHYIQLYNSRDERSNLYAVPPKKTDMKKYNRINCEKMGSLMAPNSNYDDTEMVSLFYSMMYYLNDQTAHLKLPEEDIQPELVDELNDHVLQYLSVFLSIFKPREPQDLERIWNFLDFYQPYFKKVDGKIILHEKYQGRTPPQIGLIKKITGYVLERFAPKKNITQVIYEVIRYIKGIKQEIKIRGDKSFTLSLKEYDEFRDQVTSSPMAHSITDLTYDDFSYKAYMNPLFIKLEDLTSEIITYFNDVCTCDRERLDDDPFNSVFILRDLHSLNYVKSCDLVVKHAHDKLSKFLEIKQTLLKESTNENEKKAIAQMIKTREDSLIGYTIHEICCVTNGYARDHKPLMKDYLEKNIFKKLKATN
Experimental: To test DsKabA activity and substrate specificity, a 50 μL reaction containing 5 mM MgCl2, 5 mM amino acid (L-Glu, D-Glu, L-Gln, L-Asp, L-Asn, or Gly), 1 mM prenyl donor (DMAPP or GPP), and 20 μM DsKabA in a buffer of 300 mM KCl and 50 mM HEPES pH 8.0 was incubated at 23° C. for 5 h. One equivalent of 0.1% formic acid in H2O was added and filtered with a VWR PES 3 k 500 μL spin column. The flow through was analyzed by an Agilent Technologies 1200 Series system with a diode-array detector coupled to an Agilent Technologies 6530 accurate-mass Q-TOF LCMS using the following method on a Synergi Polar-RP 4μ 250×4.6 mm column at 0.75 mL/min: 0% B (4.5 min), 0 to 5% B (0.5 min), 5 to 26% B (9 min), 26 to 80% B (9 min), 80 to 100% B (1 min), 100% B (1.5 min), 100 to 0% B (2.5 min), 0% B (2 min), wherein A=0.1% aqueous formic acid, and B=0.1% formic acid in acetonitrile.

[1] = system: ionotropic glutamate receptor (iGluR); details: literature statement; cited from earlier work
[2] = humans in vivo; literature statement; cited from earlier work

## NC(=O)C[C@H](N)C(=O)O [L-asparagine]
DsKabA
  turnover to N-prenylated product when L-glutamate is exchanged for another amino acid: did not produce appreciable amounts of N-prenylated product

## N[C@@H](CC(=O)O)C(=O)O [L-aspartate]
DsKabA
  turnover to N-prenylated product when L-glutamate is exchanged for another amino acid: did not produce appreciable amounts of N-prenylated product

## O=C(O)C[C@@H]1[C@@H](C(=O)O)NC[C@@H]1c1ccc(C(=O)O)[nH]c1=O [acromelic acid]
[1]
  iGluR bioactivity: iGluR agonistic bioactivity

## C=C(C)[C@H]1CN[C@H](C(=O)O)[C@H]1CC(=O)O [kainic acid]
[1]
  iGluR bioactivity: ionotropic glutamate receptor (iGluR) agonist; also recorded: agonistic activity
[2]
  excitotoxic / neurological effects: does not appear to produce excitotoxic effects

## NCC(=O)O [glycine]
DsKabA
  turnover to N-prenylated product when L-glutamate is exchanged for another amino acid: did not produce appreciable amounts of N-prenylated product

## C/C(=C/C=C/[C@@H](C)C(=O)O)[C@H]1CN[C@H](C(=O)O)[C@H]1CC(=O)O [domoic acid]
[2]
  excitotoxic / neurological effects: causes severe neurological problems

## NC(=O)CC[C@H](N)C(=O)O [L-glutamine]
DsKabA
  turnover to N-prenylated product when L-glutamate is exchanged for another amino acid: did not produce appreciable amounts of N-prenylated product

## CC(C)=CCC/C(C)=C/COP(=O)(O)OP(=O)(O)O [GPP]
DsKabA; 1 mM prenyl donor with 5 mM L-glutamate, 20 μM DsKabA
  product formed when DMAPP is replaced by another prenyl donor: formation of N-geranyl-L-glutamic acid (L-NGG)

## kainic acid lactone
[1]
  iGluR bioactivity: iGluR antagonist

## N[C@H](CCC(=O)O)C(=O)O [D-glutamate]
DsKabA
  turnover to N-prenylated product when L-glutamate is exchanged for another amino acid: diminished turnover
